Laboratory results reported in article PMC5285354, “Cationic Net Charge and Counter Ion Type as Antimicrobial Activity Determinant Factors of Short Lipopeptides” (Frontiers in Microbiology, 2017).
≈ marks a conversion by molar mass, not a printed value. Where a SMILES comes first, the peptide text is derived from it. The star is where a group is joined. Myristoyl = CCCCCCCCCCCCCC(=O)*

Key:
Assay type in all cases: cell-based
[1] = tested on: Aspergillus brasiliensis (ATCC 16404); conditions: ATCC 16404, 48 h
How it was run: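 Lowest lipopeptide concentration (μg/mL) with no observable growth gave the MIC, alongside MBC/MFC, by CLSI microbroth dilution. Fungi: Sabouraud dextrose broth, 10^3 cfu/mL start, 25°C for 48 h; bacteria: MH broth, 10^5 cfu/mL, 37°C for 18 h. Run in triplicate, three separate days.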

[2] = tested on: Bacillus subtilis (ATCC 6633); conditions: for MIC Bacillus subtillis: ATCC 6633, 18 h; for MBC Bacillus subtillis: ATCC 6633, 24 h
How it was run: (§1)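 Broth microdilution per CLSI: Mueller-Hinton broth, 10^5 cfu/mL inoculum, 18 h at 37°C for bacteria; Sabouraud dextrose broth, 10^3 cfu/mL, 48 h at 25°C for fungi. MIC (μg/mL) is the lowest lipopeptide concentration inhibiting visible growth; MBC/MFC also determined. Triplicate on three days.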

[3] = tested on: Candida albicans (ATCC 10231); conditions: ATCC 10231, 48 h
How it was run: as §1

[4] = tested on: Candida tropicalis (PCM 2681); conditions: PCM 2681, 48 h
How it was run: as §1

[5] = tested on: Enterococcus faecalis (ATCC 29212); conditions: for MBC Enterococcus fecalis, lipopeptides without TFA counter ion / MIC Enterococcus fecalis / MIC Enterococcus fecalis, lipopeptides without TFA counter ion: ATCC 29212, 18 h; for MBC Enterococcus fecalis: ATCC 29212, 24 h
How it was run: as §1

[6] = tested on: Escherichia coli (ATCC 25922); conditions: for MBC Escherichia coli, lipopeptides without TFA counter ion / MIC Escherichia coli / MIC Escherichia coli, lipopeptides without TFA counter ion: ATCC 25922, 18 h; for MBC Escherichia coli: ATCC 25922, 24 h
How it was run: as §1

[7] = tested on: Klebsiella pneumoniae (ATCC 700603); conditions: for MBC Klebsiella pneumoniae, lipopeptides without TFA counter ion / MIC Klebsiella pneumoniae / MIC Klebsiella pneumoniae, lipopeptides without TFA counter ion: ATCC 700603, 18 h; for MBC Klebsiella pneumoniae: ATCC 700603, 24 h
How it was run: as §1

[8] = tested on: Proteus vulgaris (PCM 2668); conditions: 18 h
How it was run: as §1

[9] = tested on: Pseudomonas aeruginosa (ATCC 9027); conditions: ATCC 9027, 18 h
How it was run: as §1

[10] = tested on: Staphylococcus aureus (ATCC 25923); conditions: for MBC Staphylococcus aureus, lipopeptides without TFA counter ion / MIC Staphylococcus aureus / MIC Staphylococcus aureus, lipopeptides without TFA counter ion: ATCC 25923, 18 h; for MBC Staphylococcus aureus: ATCC 25923, 24 h
How it was run: as §1

[11] = tested on: Staphylococcus epidermidis (PCM 2118); conditions: for MIC Staphylococcus epidermidis: PCM 2118, 18 h; for MBC Staphylococcus epidermidis: PCM 2118, 24 h
How it was run: as §1

[12] = tested on: Pseudomonas aeruginosa (ATCC 9027); conditions: ATCC 9027, 24 h
[13] = tested on: Proteus vulgaris (PCM 2668); conditions: 24 h
[14] = tested on: Candida albicans (ATCC 10231)

Row | MIC Aspergillus brasiliensis [1] [µg/mL] | MIC Bacillus subtillis [2] [µg/mL] | MIC Candida albicans [3] [µg/mL] | MIC Candida tropicalis [4] [µg/mL] | MIC Enterococcus fecalis [5] [µg/mL] | MIC Escherichia coli [6] [µg/mL] | MIC Klebsiella pneumoniae [7] [µg/mL] | SMILES | MFC Aspergillus brasiliensis [1] [µg/mL] | MBC Bacillus subtillis [2] [µg/mL] | MFC Candida albicans [3] [µg/mL] | MIC Candida albicans, lipopeptides without TFA counter ion [3] [µg/mL] | MFC Candida tropicalis [4] [µg/mL] | MBC Enterococcus fecalis, lipopeptides without TFA counter ion [5] [µg/mL] | MIC Enterococcus fecalis, lipopeptides without TFA counter ion [5] [µg/mL] | MBC Enterococcus fecalis [5] [µg/mL] | MBC Escherichia coli, lipopeptides without TFA counter ion [6] [µg/mL] | MIC Escherichia coli, lipopeptides without TFA counter ion [6] [µg/mL] | MBC Escherichia coli [6] [µg/mL] | MBC Klebsiella pneumoniae, lipopeptides without TFA counter ion [7] [µg/mL] | MIC Klebsiella pneumoniae, lipopeptides without TFA counter ion [7] [µg/mL] | also measured
1 | 128 (≈ 310 µM) | 16 (≈ 38.8 µM) | 128 (≈ 310 µM) | 256 (≈ 620 µM) | 32 (≈ 77.6 µM) | 64 (≈ 155 µM) | 32 (≈ 77.6 µM) | CCCCCCCCCCCCCC(=O)N[C@@H](CCCCN)C(=O)NCC(N)=O [C14-KG-NH2] (Myristoyl-Lys-Gly-NH2) | 128 (≈ 310 µM) | 16 (≈ 38.8 µM) | 128 (≈ 310 µM) | 256 (≈ 620 µM) | 256 (≈ 620 µM) | 32 (≈ 77.6 µM) | 32 (≈ 77.6 µM) | 32 (≈ 77.6 µM) | 64 (≈ 155 µM) | 64 (≈ 155 µM) | 64 (≈ 155 µM) | 64 (≈ 155 µM) | 32 (≈ 77.6 µM) | MBC Klebsiella pneumoniae [7]: 32 µg/mL (≈ 77.6 µM); MIC Proteus vulgaris [8]: >512 µg/mL; MIC Pseudomonas aeruginosa [9]: 32 µg/mL (≈ 77.6 µM); MBC Staphylococcus aureus, lipopeptides without TFA counter ion [10]: 32 µg/mL (≈ 77.6 µM); MIC Staphylococcus aureus [10]: 32 µg/mL (≈ 77.6 µM); MIC Staphylococcus aureus, lipopeptides without TFA counter ion [10]: 32 µg/mL (≈ 77.6 µM); MBC Staphylococcus aureus [10]: 32 µg/mL (≈ 77.6 µM); MIC Staphylococcus epidermidis [11]: 16 µg/mL (≈ 38.8 µM); MBC Staphylococcus epidermidis [11]: 16 µg/mL (≈ 38.8 µM); MBC Pseudomonas aeruginosa [12]: 64 µg/mL (≈ 155 µM); MBC Proteus vulgaris [13]: >512 µg/mL; MFC Candida albicans, lipopeptides without TFA counter ion [14]: 256 µg/mL (≈ 620 µM)
2 | 128 (≈ 250 µM) | 4 (≈ 7.82 µM) | 128 (≈ 250 µM) | 128 (≈ 250 µM) | 8 (≈ 15.6 µM) | 8 (≈ 15.6 µM) | 16 (≈ 31.3 µM) | CCCCCCCCCCCCCCCC(=O)N[C@@H](CCCCN)C(=O)N[C@@H](CCCCN)C(N)=O [C16-KK-NH2] | 128 (≈ 250 µM) | 4 (≈ 7.82 µM) | 128 (≈ 250 µM) | 256 (≈ 500 µM) | 128 (≈ 250 µM) | 4 (≈ 7.82 µM) | 4 (≈ 7.82 µM) | 8 (≈ 15.6 µM) | 4 (≈ 7.82 µM) | 4 (≈ 7.82 µM) | 8 (≈ 15.6 µM) | 32 (≈ 62.5 µM) | 16 (≈ 31.3 µM) | MBC Klebsiella pneumoniae [7]: 16 µg/mL (≈ 31.3 µM); MIC Proteus vulgaris [8]: >512 µg/mL; MIC Pseudomonas aeruginosa [9]: 8 µg/mL (≈ 15.6 µM); MBC Staphylococcus aureus, lipopeptides without TFA counter ion [10]: 4 µg/mL (≈ 7.82 µM); MIC Staphylococcus aureus [10]: 8 µg/mL (≈ 15.6 µM); MIC Staphylococcus aureus, lipopeptides without TFA counter ion [10]: 4 µg/mL (≈ 7.82 µM); MBC Staphylococcus aureus [10]: 8 µg/mL (≈ 15.6 µM); MIC Staphylococcus epidermidis [11]: 4 µg/mL (≈ 7.82 µM); MBC Staphylococcus epidermidis [11]: 4 µg/mL (≈ 7.82 µM); MBC Pseudomonas aeruginosa [12]: 8 µg/mL (≈ 15.6 µM); MBC Proteus vulgaris [13]: >512 µg/mL; MFC Candida albicans, lipopeptides without TFA counter ion [14]: 256 µg/mL (≈ 500 µM)
3 | 128 (≈ 200 µM) | 8 (≈ 12.5 µM) | 128 (≈ 200 µM) | 128 (≈ 200 µM) | 16 (≈ 25 µM) | 8 (≈ 12.5 µM) | 4 (≈ 6.25 µM) | CCCCCCCCCCCCCCCC(=O)N[C@@H](CCCCN)C(=O)N[C@@H](CCCCN)C(=O)N[C@@H](CCCCN)C(N)=O [C16-KKK-NH2] | 128 (≈ 200 µM) | 8 (≈ 12.5 µM) | 128 (≈ 200 µM) | 128 (≈ 200 µM) | 128 (≈ 200 µM) | 8 (≈ 12.5 µM) | 8 (≈ 12.5 µM) | 16 (≈ 25 µM) | 8 (≈ 12.5 µM) | 4 (≈ 6.25 µM) | 16 (≈ 25 µM) | 4 (≈ 6.25 µM) | 4 (≈ 6.25 µM) | MBC Klebsiella pneumoniae [7]: 4 µg/mL (≈ 6.25 µM); MIC Proteus vulgaris [8]: >512 µg/mL; MIC Pseudomonas aeruginosa [9]: 8 µg/mL (≈ 12.5 µM); MBC Staphylococcus aureus, lipopeptides without TFA counter ion [10]: 8 µg/mL (≈ 12.5 µM); MIC Staphylococcus aureus [10]: 8 µg/mL (≈ 12.5 µM); MIC Staphylococcus aureus, lipopeptides without TFA counter ion [10]: 4 µg/mL (≈ 6.25 µM); MBC Staphylococcus aureus [10]: 8 µg/mL (≈ 12.5 µM); MIC Staphylococcus epidermidis [11]: 4 µg/mL (≈ 6.25 µM); MBC Staphylococcus epidermidis [11]: 4 µg/mL (≈ 6.25 µM); MBC Pseudomonas aeruginosa [12]: 8 µg/mL (≈ 12.5 µM); MBC Proteus vulgaris [13]: >512 µg/mL; MFC Candida albicans, lipopeptides without TFA counter ion [14]: 128 µg/mL (≈ 200 µM)
